From US5438062A, “Benzo(5,6)cycloheptapyridines, compositions and methods of use” (Schering Corporation, priority 1987, dated 1995)
pIC50: −log10 of the molar value.

Experiments:
[1] = system: histamine-induced lethality; assay: Antihistamine activity: prevention of histamine-induced lethality in guinea pigs; assay type: in vivo; conditions: Cavia porcellus, guinea pig; for responders at 1 mg/kg / responders at 5 mg/kg: 0.5 h, 1 hour before histamine 1.1 mg/kg i.v., read-out: Antihistaminic Activity, % Survival; for responders at 1 mg/kg: oral dose 1 mg/kg PO; for responders at 5 mg/kg: oral dose 5 mg/kg PO
Method: C. ANTIHISTAMINE ACTIVITY ASSAY
Prevention of Histamine-Induced Lethality in Guinea Pigs. Some of compounds shown below in Table I also were evaluated for antihistamine activity by their ability to protect female albino guinea pigs (250-350 g) against death induced by the intravenous injection of histamine dihydrochloride at 1.1 mg/kg, which is approximately twice the LD99. Doses of the antagonists were administered orally to separate groups of fasted animals 1 hour prior to the challenge with histamine and protection from death recorded for 30 minutes after histamine. ED50 values were determined for each drug by probit analysis.

[2] = CNS activity: antagonism of acetic acid writhing; conditions: mouse, in vivo; mice, oral, 15 minutes before acetic acid i.p.
Method: E. Antagonism of Acetic Acid Writhing. The acetic acid writhing test is a second test useful for determining CNS activity, and is essentially that described by HENDERSHOT and FORSAITH, J. Pharmac. […] Mice were injected with 0.6% aqueous acetic acid at 10 mg/kg i.p. 15 minutes after oral administration of the test drug. The number of writhes for each animal was counted during a 10 minute period starting 3 minutes after acetic acid treatment. A writhe was defined as a sequence of arching of the back, pelvic rotation and hind limb extension.

[3] = system: PAF-induced platelet aggregation (platelet-rich plasma); assay: PAF antagonism, in vitro platelet aggregation assay; assay type: cell-based; conditions: human PRP; for inhibition at 10 µM: dose 10 micromoles; for pIC50: dose giving 50 % PAF antagonism, PAF 1-5×10^-8 M
Method: Blood was centrifuged at 110×g for 15 min. and the supernatant PRP carefully transferred into a polypropylene tube. Platelet-poor-plasma (PPP) was prepared by centrifuging PRP at 12,000×g for 2 min. in a Beckman Microfuge B. PRP was used within 3 hours of drawing the blood.
Platelet Aggregation Assay: When an aggregating agent such as PAF is added to PRP, platelets aggregate. An aggregometer quantifies this aggregation by measuring light (infra-red) transmission through PRP and comparing to PPP. The aggregation assays were performed using a dual-channel aggregometer (Model 440, Chrono-Log Corp., Hayertown, Pa.). PRP (0.45 ml) in aggregometer curettes was continually stirred (37° C.). Solutions of test compounds or vehicle were added to the PRP, and after incubation for 2 min., 10-15 μl aliquots of PAF solution were added so as to achieve a final concentration of 1-5×10^-8 M. Incubations were continued until the increase in light transmission reached a maximum (usually about 2 min). Values for inhibition were calculated by comparing maximal aggregation obtained in the absence and the presence of the compound. For each experiment, a standard PAF antagonist, such as alprazolam, was used as a positive internal control. […] The test results are shown below in Tables Ia, Ib and Ic.

[4] = CNS activity: antagonism of electro-convulsive shock (ECS); conditions: mouse, in vivo; mice, oral, one hour before ECS; read-out: ECS test ED50
Method: F. Antagonism of Electro-Convulsive Shock (ECS). The ECS test is a third test useful for determining CNS activity. […] One hour after oral administration of the test drug or vehicle, mice were administered a 13 mA, 60 cycle a.c. electroconvulsant shock (ECS) for 0.2 seconds via corneal electrodes.

PAF-induced bronchospasm = PAF-induced bronchospasm in guinea pigs; assay type: in vivo; conditions: guinea pig
Method: PAF is also a known bronchoconstrictive agent in mammals.
B. PAF-INDUCED BRONCHOSPASM IN GUINEA PIGS
Non-sensitized guinea Digs were fasted overnight, and the following morning were anesthetized with 0.9 ml/kg i.p. of dialurethane (0.1 g/ml of diallybarbituric acid, 0.4 g/ml of ethylurea and 0.4 g/ml of urethane). The trachea was cannulated and the animals were ventilated by a Harvard rodent respirator at 55 strokes/min. with a stroke volume of 4 ml. A side arm to the tracheal cannula was connected to a Harvard pressure transducer to obtain a continuous measure of intratracheal pressure, which was recorded on a Harvard Polygraph. The jugular vein was cannulated for the administration of compounds. The animals were challenged i.v. with PAF (0.4 ug/kg in isotonic saline containing 0.25% BSA) and the peak increase in inflation pressure that occurred within 5 min. after challenge was recorded. Test compounds were administered either orally (2 hrs. prior to PAF as a suspension in 0.4% methylcellulose vehicle) or intravenously (10 min. prior to PAF as a solution in dimethylsulfoxide).

[5] = CNS activity: antagonism of physostigmine lethality; conditions: mouse, in vivo; mice, oral, 30 minutes prior to physostigmine 1.0 mg/kg s.c.
Method: D. Antagonism of Physostigmine Lethality. The physostigmine-induced lethality test is indicative of CNS activity and the test described is a modification of the technique reported by COLLIER et al., Br. J. Pharmac., 32, 295-310 (1968). physostigmine salicylate (1.0 mg/kg s.c.) produces 100% lethality when administered to mice grouped 10 per plastic cage (11×26×13 cm). Test agents were administered orally 30 minutes prior to physostigmine. The number of survivors were counted 20 minutes after physostigmine administration.

SMILES | responders at 1 mg/kg [1] [%] | responders at 5 mg/kg [1] [%] | ED50 [2] [mg/kg] | inhibition at 10 µM [3] [%] | ED50 [4] [mg/kg] | inhibition at 3 µM ([3]; dose 3 micromoles) [%] | pIC50 [3] | inhibition of PAF-induced bronchospasm (PAF-induced bronchospasm; 3 mg/kg (iv)) [%] | inhibition of PAF-induced bronchospasm (PAF-induced bronchospasm; 1 mg/kg intravenously) [%] | ED50 ([1]; oral, probit analysis, read-out: Antihistaminic Activity, ED50) [µg/kg] | ED50 [5] [mg/kg]
CCSC(=O)N1CCC(=C2c3ccc(Cl)cc3CCc3cccnc32)CC1 [R = SCH2 CH3, R^3 = Cl, R^4 = H, Z = O, 8-chloro-11-[1-thioethoxycarbonyl-4-piperidylidene]-6,11-dihydro-5H-benzo[5,6]cyclohepta[1,2-b]pyridine] | 100 | 80 | > 320 | 0 | > 320 |  |  |  |  |  | 
CCC(=O)N1CCC(=C2c3ccc(Cl)cc3CCc3cccnc32)CC1 [R = CH2 CH2, R^3 = Cl, R^4 = H, Z = O, 8-chloro-11-(1-propionyl-4-piperidylidene)-6,11-dihydro-5H-benzo[5,6]cyclohepta[1,2-b]pyridine] | 40 | 80 | > 320 |  | > 320 | 60 |  |  |  |  | 
CCCC(=O)N1CCC(=C2c3ccc(Cl)cc3CCc3cccnc32)CC1 [8-chloro-11-(1-n-butyryl-4-piperidylidene)-6,11-dihydro-5H-benzo[5,6]cyclohepta[1,2-b]pyridine] | 40 | 100 | > 320 |  | > 320 |  |  |  |  |  | 
O=C(c1ccccc1)N1CCC(=C2c3ccc(Cl)cc3CCc3cccnc32)CC1 [Z = O, R = Ph, R^3 = Cl, R^4 = H, 8-chloro-11-(1-benzoyl-4-piperidylidene)-6,11-dihydro-5H-benzo[5,6]cyclohepta[1,2-b]pyridine] | 0 | 100 |  | 9 |  |  |  |  |  |  | 
CC(=O)N1CCC(=C2c3ccc(F)cc3CCc3cccnc32)CC1 [R = CH3, Z = O, R^3 = F, R^4 = H, 8-fluoro-11-(1-acetyl-4-piperidylidene)-6,11-dihydro-5H-benzo[5,6]cyclohepta[1,2-b]pyridine] |  | 20 |  |  |  |  | 6.15 | 99 |  |  | 
CC(=O)N1CCC(=C2c3cc(F)ccc3CCc3cccnc32)CC1 [R = CH3, Z = O, R^3 = H, R^4 = F, 9-fluoro-11-(1-acetyl-4-piperidylidene)-6,11-dihydro-5H-benzo[5,6]cyclohepta[1,2-b]pyridine] |  | 0 |  |  |  |  | 6.05 | 97 |  |  | 
S=C(c1ccccc1)N1CCC(=C2c3ccc(Cl)cc3CCc3cccnc32)CC1 [Z = S, R = Ph, R^3 = Cl, R^4 = H, 8-chloro-11-(1-thiobenzoyl-4-piperidylidene)-6,11-dihydro-5H-benzo[5,6]cyclohepta[1,2-b]pyridine] | 0 | 60 | > 320 |  | > 320 |  |  |  |  |  | 
CC(=O)N1CCC(=C2c3ccc(Cl)cc3CCc3cccnc32)CC1 [Z = O, R = CH3, R^3 = Cl, R^4 = H, 8-chloro-11-(1-acetyl-4-piperidylidene)-6,11-dihydro-5H-benzo[5,6]cyclohepta[1,2-b]pyridine] | 60 | 100 | > 160 |  | > 320 |  | 6.15 |  | 75 |  | 
COCC(=O)N1CCC(=C2c3ccc(Cl)cc3CCc3cccnc32)CC1 [R = CH2 OCH3, R^3 = Cl, R^4 = H, Z = O, 8-chloro-11-(1-methoxyacetyl-4-piperidylidene)-6,11-dihydro-5H-benzo[5,6]cyclohepta[1,2-b]pyridine] | 80 | 80 | > 320 |  | > 320 |  | 5.22 |  |  |  | 
CN1CCC(=C2c3ccccc3CCc3cccnc32)CC1 [R^3 = H, R^4 = H, A = H, CZR = CH3, reference compound] |  |  | 8.9 |  | > 80 |  | < 4.00 |  |  | 9 | 6.1
COCC(=O)N1CCC(=C2c3ccc(F)cc3CCc3cccnc32)CC1 [R = CH2 OCH3, R^3 = F, R^4 = H, Z = O, 8-fluoro-11-(1-methoxyacetyl-4-piperidylidene)-6,11-dihydro-5H-benzo[5,6]cyclohepta[1,2-b]pyridine] | 100 | 100 | < 320 | 9 | < 320 |  |  |  |  |  | 
